# According to patent US7192925B2, “Scorpion peptide as hypotensive agent” (Universidade Federal de Minas Gerais, priority 2002, dated 2007):
# “Also recorded” adds a separate entry of the source.
# Key:
# [1] = test system: hypotensive effect of bradykinin (average arterial pressure) in Wistar rats; test: Bradykinin potentiation in vivo: hypotensive effect of bradykinin re-evaluated after TsHpt-I injection; set-up: species or system rat
# Experimental: (§1) Wistar rats, weighting 300±20 g were used, waked or anesthetized, to assess the hypotensive properties of peptides. Bradykinin (Bachem, Co) and TsHpt-I were dissolved in sterile isotonic saline (0.9% NaCl) immediately before use.
# (§2) “In vivo” experiments using waked animals: a day before the experiment, rats were anesthetized with ether and a polyethylene catheter (PE-10 connected to PE-50) was inserted into the abdominal aorta through the femoral artery for blood pressure measurements. For intravenous injections, a polyethylene cannula was implanted into the femoral vein. Arterial blood pressure and heart rate were monitored by a solid-state strain-gauge transducer. All variables were recorded continuously on a computer through a data acquisition system, Biopac®, and processed by the Acknowledge® software.
# (§3) Bradykinin, 1 μg or 2 μg, was injected and the response measured as variation on average arterial pressure. Hypotensive effect of TsHpt-I (10 μg) alone was measured after Bradykinin. The hypotensive effect of bradykinin (1 μg) was then re-evaluated after 5 and 10 minutes following the injection of TsHpt-I.
# “In vivo” experiments using anesthetized rats: the arterial blood pressure and heart rate were monitored continuously after insertion of catheters as described above. Rats were previously anesthetized with urethane, 1.2 mg/kg, (via i.p.).
# The hypotensive effect of intravenous injections of bradykinin, 1 μg or 2 μg was measured, followed by the measurement of hypotensive effect of TsHpt-I (10 μg). The hypotensive effect of the bradykinin (1 μg) was then re-evaluated after 1, 5, 10, 15, 20 and 30 minutes.
# The potentiating unit—i.e., the amount of peptide that is able to double the activity of a single dose of bradykinin—of TsHpt-I was 10 μg. At this dose TsHpt-I was able to double the activity of a single dose of bradykinin for almost 20 minutes in anesthetized animals.
# [2] = test system: arterial blood pressure of Wistar rats; test: Hypotensive activity of the peptide in biological assays on rats; format: in vivo, rat; conditions: native and synthetic peptide
# Experimental: as §1, §2, §3
# “In vivo” experiments using anesthetized rats: the arterial blood pressure and heart rate were monitored continuously after insertion of catheters as described above. Rats were previously anesthetized with urethane, […], (via i.p.). […]
substance,measurement,setting,value
TsHpt-I (AEIDFSGIPEDIIKQIKETNAKPPA; listed as Tityus serrulatus),time for which TsHpt-I was able to double the activity of a single dose of bradykinin,"[1]; TsHpt-I 10 μg, anesthetized animals (urethane)",~20 min
same,potentiation of bradykinin effects (in words),"[1]; rat, in vivo",able to potentiate bradykinin effects in a strong and long-lasting manner
same,potentiating unit (amount of peptide that is able to double the activity of a single dose of bradykinin),"[1]; waked and anesthetized rats, intravenous injection, bradykinin 1 μg",10 µg
same,hypotensive activity / ability to decrease blood pressure (in words),[2],strong ability to decrease blood pressure; also recorded: same hypotensive activity as the native molecule
